Laboratory results published in paper PMC11648825, “Lasamide Containing Sulfonylpiperazines as Effective Agents for the Management of Glaucoma Associated Symptoms” (Chemmedchem, 2024).
Where two headings read alike, the source gives them in different places.

Legend:
Assay in all cases: stopped-flow CO2 hydrase assay
Format in all cases: biochemical
hCA XII = biological target: T1, hCA XII (Homo sapiens, UniProt O43570)
T1 construct: gene CA12; recombinant, made in-house
Excerpt: stopped-flow CO2 hydrase assay on hCA XII

hCA IX = biological target: T2, hCA IX (Homo sapiens, UniProt Q16790)
T2 construct: gene CA9; recombinant, made in-house
Excerpt: stopped-flow CO2 hydrase assay on hCA IX

hCA I = biological target: T3, hCA I (Homo sapiens, UniProt P00915)
T3 construct: gene CA1; purchased from Merck; cytosolic isoform; construct not described
T3 sequence (P00915 2-261): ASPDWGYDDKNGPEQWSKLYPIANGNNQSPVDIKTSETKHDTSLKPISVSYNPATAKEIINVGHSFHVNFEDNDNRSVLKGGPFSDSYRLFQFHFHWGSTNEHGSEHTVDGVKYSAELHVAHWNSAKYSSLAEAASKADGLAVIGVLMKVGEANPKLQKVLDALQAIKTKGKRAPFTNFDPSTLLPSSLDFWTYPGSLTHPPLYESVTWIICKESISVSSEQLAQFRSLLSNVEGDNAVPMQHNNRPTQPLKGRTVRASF
Excerpt: stopped-flow CO2 hydrase assay on hCA I

hCA II = biological target: T4, hCA II (Homo sapiens, UniProt P00918)
T4 construct: gene CA2; purchased from Merck; cytosolic isoform; construct not described
Excerpt: stopped-flow CO2 hydrase assay on hCA II

[1] = CO2 substrate; […] HEPES pH […] Na2SO4, […] min preincubation at room temperature

T1 sequence (O43570 25-354 limits assumed): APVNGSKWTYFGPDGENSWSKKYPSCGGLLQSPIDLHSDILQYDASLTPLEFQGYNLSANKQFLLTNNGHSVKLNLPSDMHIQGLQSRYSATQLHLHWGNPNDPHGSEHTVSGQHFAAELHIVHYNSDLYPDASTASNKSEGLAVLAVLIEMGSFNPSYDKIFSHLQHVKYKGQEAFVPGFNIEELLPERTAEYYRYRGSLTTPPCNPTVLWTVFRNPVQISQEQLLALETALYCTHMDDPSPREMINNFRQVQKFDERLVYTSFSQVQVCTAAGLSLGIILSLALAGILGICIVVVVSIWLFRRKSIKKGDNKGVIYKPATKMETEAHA

SMILES	Ki (hCA XII; [1]) [nM]	Ki (hCA IX; [1]) [nM]	Ki (hCA I; [1]) [nM]	Ki (hCA II; [1]) [nM]	Ki (hCA XII) [nM]	Ki (hCA IX) [nM]	Ki (hCA I) [nM]	Ki (hCA II) [nM]
NS(=O)(=O)c1cc(C(=O)O)c(Cl)cc1Cl [compound 1, 2,4‐dichloro‐5‐sulfamoylbenzoic acid]	7.5	2.6	0.52	0.33	–	–	–	–
CC(C)(C)OC(=O)N1CCN(C(=O)c2cc(S(N)(=O)=O)c(Cl)cc2Cl)CC1 [compound 2, Tert‐butyl 4‐[(2,4‐dichloro‐5‐sulfamoylphenyl)carbonyl]piperazine‐1‐carboxylate]	–	–	–	–	50.1	40.1	85.7	3.9
Cc1ccc(S(=O)(=O)N2CCN(C(=O)c3cc(S(N)(=O)=O)c(Cl)cc3Cl)CC2)cc1 [compound 5, 2,4‐dichloro‐5‐({4‐[(4‐methylphenyl)sulfonyl]piperazin‐1‐yl}carbonyl)benzenesulfonamide]	–	–	–	–	62.4	340	64	29
COc1ccc(S(=O)(=O)N2CCN(C(=O)c3cc(S(N)(=O)=O)c(Cl)cc3Cl)CC2)cc1 [compound 6, 2,4‐dichloro‐5‐({4‐[(4‐methoxyphenyl)sulfonyl]piperazin‐1‐yl}carbonyl)benzenesulfonamide]	–	–	–	–	11.6	40.6	9.1	2.8
NS(=O)(=O)c1cc(C(=O)N2CCN(S(=O)(=O)c3ccc(Cl)cc3)CC2)c(Cl)cc1Cl [compound 7, 2,4‐dichloro‐5‐({4‐[(4‐chlorophenyl)sulfonyl]piperazin‐1‐yl}carbonyl)benzenesulfonamide]	–	–	–	–	5.2	35.8	8.2	3.4
NS(=O)(=O)c1cc(C(=O)N2CCN(S(=O)(=O)c3ccc([N+](=O)[O-])cc3)CC2)c(Cl)cc1Cl [compound 8, 2,4‐dichloro‐5‐({4‐[(4‐nitrophenyl)sulfonyl]piperazin‐1‐yl}carbonyl)benzenesulfonamide]	–	–	–	–	7.9	39.4	79.9	71.2
Nc1ccc(S(=O)(=O)N2CCN(C(=O)c3cc(S(N)(=O)=O)c(Cl)cc3Cl)CC2)cc1 [compound 9, 5‐({4‐[(4‐aminophenyl)sulfonyl]piperazin‐1‐yl}carbonyl)‐2,4‐dichlorobenzenesulfonamide]	–	–	–	–	6.9	152	5.7	2.6
CC(=O)Nc1ccc(S(=O)(=O)N2CCN(C(=O)c3cc(S(N)(=O)=O)c(Cl)cc3Cl)CC2)cc1 [compound 10, 5‐({4‐[(4‐acetylaminophenyl)sulfonyl]piperazin‐1‐yl}carbonyl)‐2,4‐dichlorobenzenesulfonamide]	–	–	–	–	7.2	40.4	8	5.4
NS(=O)(=O)c1cc(C(=O)N2CCN(S(=O)(=O)c3cccc([N+](=O)[O-])c3)CC2)c(Cl)cc1Cl [compound 11, 2,4‐dichloro‐5‐({4‐[(3‐nitrophenyl)sulfonyl]piperazin‐1‐yl}carbonyl)benzenesulfonamide]	–	–	–	–	7.8	37.7	6.2	6.6
NS(=O)(=O)c1cc(C(=O)N2CCN(S(=O)(=O)c3ccc(Cl)c(Cl)c3)CC2)c(Cl)cc1Cl [compound 15, 2,4‐dichloro‐5‐({4‐[(3,4‐dichlorophenyl)sulfonyl]piperazin‐1‐yl}carbonyl)benzenesulfonamide]	–	–	–	–	9.1	39	7.1	5.7

Further lines, results first:

Ki (hCA XII; [1]) [nM]	Ki (hCA IX; [1]) [nM]	Ki (hCA I; [1]) [nM]	Ki (hCA II; [1]) [nM]	Ki (hCA XII) [nM]	Ki (hCA IX) [nM]	Ki (hCA I) [nM]	Ki (hCA II) [nM]	SMILES
–	–	–	–	7.1	39.7	9.4	7.4	NS(=O)(=O)c1cc(C(=O)N2CCN(S(=O)(=O)c3ccccc3)CC2)c(Cl)cc1Cl [compound 4, 2,4‐dichloro‐5‐{[4‐(phenylsulfonyl)piperazin‐1‐yl]carbonyl}benzenesulfonamide]
–	–	–	–	5.4	26.3	5.8	0.8	Nc1cccc(S(=O)(=O)N2CCN(C(=O)c3cc(S(N)(=O)=O)c(Cl)cc3Cl)CC2)c1 [compound 12, 5‐({4‐[(3‐aminophenyl)sulfonyl]piperazin‐1‐yl}carbonyl)‐2,4‐dichlorobenzenesulfonamide]
–	–	–	–	7.2	28.9	7.8	0.3	NS(=O)(=O)c1cc(C(=O)N2CCN(S(=O)(=O)c3ccccc3[N+](=O)[O-])CC2)c(Cl)cc1Cl [compound 13, 2,4‐dichloro‐5‐({4‐[(2‐nitrophenyl)sulfonyl]piperazin‐1‐yl}carbonyl)benzenesulfonamide]
–	–	–	–	9.6	11.4	5.4	2.8	Nc1ccccc1S(=O)(=O)N1CCN(C(=O)c2cc(S(N)(=O)=O)c(Cl)cc2Cl)CC1 [compound 14, 5‐({4‐[(2‐aminophenyl)sulfonyl]piperazin‐1‐yl}carbonyl)‐2,4‐dichlorobenzenesulfonamide]
–	–	–	–	0.87	273	0.54	0.07	NS(=O)(=O)c1cc(C(=O)N2CCN(S(=O)(=O)Cc3ccccc3)CC2)c(Cl)cc1Cl [compound 16, 5‐{[4‐(benzylsulfonyl)piperazin‐1‐yl]carbonyl}‐2,4‐dichlorobenzenesulfonamide]
